Source: patent US8163728B2, “Pyrazoles” (Hoffmann-La Roche Inc., priority 2009, dated 2012)

Each compound was assayed against T1, GABA A α5 (Homo sapiens, UniProt P18507+P31644) (assay: [3H]flumazenil competition binding, human GABA A α5β3γ2 receptors in HEK293 cell membranes). Settings: human receptor α5β3γ2 transiently transfected in HEK293; 0.5 nM [3H]flumazenil; 1 hour at 4° C.; means of two determinations; read-out: hKi GABA A α5.
T1 construct: expressed in transfected cells; host or cells: HEK293 cells, transiently transfected; membranes prepared from cell pellets
Outline: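 Competition with [3H]flumazenil for binding to membranes of HEK293 cells transiently expressing human α5β3γ2, in Krebs-tris buffer pH 7.5. Incubated to equilibrium 1 h at 4 °C, filtered and scintillation-counted; Ki values are means of two determinations.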

Compound | Ki [nM]
Cc1onc(-c2ccc(F)cc2)c1/C=C/c1cc(C(=O)NC(C)(C)CO)[nH]n1 [Example 138, 5-{(E)-2-[3-(4-Fluoro-phenyl)-5-methyl-isoxazol-4-yl]vinyl}-2H-pyrazole-3-carboxylic acid (2-hydroxy-1,1-dimethyl-ethyl)-amide] | 11
Cc1onc(-c2ccc(F)cc2)c1/C=C/c1cc(C(=O)NC(C)CO)[nH]n1 (stereo not drawn) [Example 139, 5-{(E)-2-[3-(4-Fluoro-phenyl)-5-methyl-isoxazol-4-yl]-vinyl}-2H-pyrazole-3-carboxylic acid (2-hydroxy-1-methyl-ethyl)-amide] | 3
Cc1onc(-c2ccc(F)cc2)c1/C=C/c1cc(C(=O)NCC(C)(C)O)[nH]n1 [Example 140, 5-{(E)-2-[3-(4-Fluoro-phenyl)-5-methyl-isoxazol-4-yl]vinyl}-2H-pyrazole-3-carboxylic acid (2-hydroxy-2-methyl-propyl)-amide] | 3.8
CCNC(=O)c1cc(/C=C/c2c(-c3ccc(F)cc3)noc2C)n[nH]1 [Example 141, 5-{(E)-2-[3-(4-Fluoro-phenyl)-5-methyl-isoxazol-4-yl]vinyl}-2H-pyrazole-3-carboxylic acid ethylamide] | 8.1
Cc1onc(-c2ccc(F)cc2)c1/C=C/c1cc(C(N)=O)[nH]n1 [Example 142, 5-{(E)-2-[3-(4-Fluoro-phenyl)-5-methyl-isoxazol-4-yl]vinyl}-2H-pyrazole-3-carboxylic acid amide] | 4.8
Cc1onc(-c2ccc(F)cc2)c1/C=C/c1cc(C(=O)NC(C)(C)CO)n(C)n1 [Example 143, 5-{(E)-2-[3-(4-Fluoro-phenyl)-5-methyl-isoxazol-4-yl]vinyl}-2-methyl-2H-pyrazole-3-carboxylic acid (2-hydroxy-1,1-dimethyl-ethyl)-amide] | 7.4
Cc1onc(-c2ccc(F)cc2)c1CNc1cc(C(=O)NCC(C)(C)O)n(C)n1 [Example 144, 5-{[3-(4-Fluoro-phenyl)-5-methyl-isoxazol-4-ylmethyl]-amino}-2-methyl-2H-pyrazole-3-carboxylic acid (2-hydroxy-2-methyl-propyl)-amide] | 29.3
Cc1onc(-c2ccc(F)cc2)c1CNc1cc(C(N)=O)n(C)n1 [Example 145, 5-{[3-(4-Fluoro-phenyl)-5-methyl-isoxazol-4-ylmethyl]-amino}-2-methyl-2H-pyrazole-3-carboxylic acid amide] | 69.6
Cc1onc(-c2ccc(F)cc2)c1CNc1cc(C(=O)NCC(F)(F)F)n(C)n1 [Example 146, 5-{[3-(4-Fluoro-phenyl)-5-methyl-isoxazol-4-ylmethyl]-amino}-2-methyl-2H-pyrazole-3-carboxylic acid (2,2,2-trifluoro-ethyl)-amide] | 15.2
Cc1onc(-c2ccc(F)cc2)c1CNc1cc(C(=O)NC2CCOCC2)n(C)n1 [Example 147, 5-{[3-(4-Fluoro-phenyl)-5-methyl-isoxazol-4-ylmethyl]-amino}-2-methyl-2H-pyrazole-3-carboxylic acid (tetrahydro-pyran-4-yl)-amide] | 4.7
Cc1onc(-c2ccc(F)cc2)c1CNc1cc(C(=O)NC2(C)COC2)n(C)n1 [Example 148, 5-{[3-(4-Fluoro-phenyl)-5-methyl-isoxazol-4-ylmethyl]-amino}-2-methyl-2H-pyrazole-3-carboxylic acid (3-methyl-oxetan-3-yl)-amide] | 5.4
Cc1onc(-c2ccc(F)cc2)c1CNc1cc(C(=O)N2CC3(COC3)C2)n(C)n1 [Example 149, (5-{[3-(4-Fluoro-phenyl)-5-methyl-isoxazol-4-ylmethyl]-amino}-2-methyl-2H-pyrazol-3-yl)-(2-oxa-6-aza-spiro[3.3]hept-6-yl)-methanone] | 67.5
Cc1onc(-c2ccc(F)cc2)c1CNc1cc(C(=O)NC(C)CO)n(C)n1 (stereo not drawn) [Example 150, 5-{[3-(4-Fluoro-phenyl)-5-methyl-isoxazol-4-ylmethyl]-amino}-2-methyl-2H-pyrazole-3-carboxylic acid (2-hydroxy-1-methyl-ethyl)-amide] | 26.2
Cc1onc(-c2ccc(F)cc2)c1CNc1cc(C(=O)NC(C)C)n(C)n1 [Example 151, 5-{[3-(4-Fluoro-phenyl)-5-methyl-isoxazol-4-ylmethyl]-amino}-2-methyl-2H-pyrazole-3-carboxylic acid isopropylamide] | 13.6
Cc1onc(-c2ccc(F)cc2)c1CNc1cc(C(=O)NCC(C)(C)O)[nH]n1 [Example 152, 5-{[3-(4-Fluoro-phenyl)-5-methyl-isoxazol-4-ylmethyl]-amino}-2H-pyrazole-3-carboxylic acid (2-hydroxy-2-methyl-propyl)-amide] | 20.9
Cc1onc(-c2ccc(F)cc2)c1CNc1cc(C(N)=O)[nH]n1 [Example 153, 5-{[3-(4-Fluoro-phenyl)-5-methyl-isoxazol-4-ylmethyl]-amino}-2H-pyrazole-3-carboxylic acid amide] | 43.4
Cc1onc(-c2ccc(F)cc2)c1CNc1cc(C(=O)NC(C)C)[nH]n1 [Example 154, 5-{[3-(4-Fluoro-phenyl)-5-methyl-isoxazol-4-ylmethyl]-amino}-2H-pyrazole-3-carboxylic acid isopropylamide] | 13
CCNC(=O)c1cc(NCc2c(-c3ccc(F)cc3)noc2C)n[nH]1 [Example 155, 5-{[3-(4-Fluoro-phenyl)-5-methyl-isoxazol-4-ylmethyl]-amino}-2H-pyrazole-3-carboxylic acid ethylamide] | 57.1
Cc1onc(-c2ccc(F)cc2)c1CNc1cc(C(=O)NC2CCOCC2)[nH]n1 [Example 156, 5-{[3-(4-Fluoro-phenyl)-5-methyl-isoxazol-4-ylmethyl]-amino}-2H-pyrazole-3-carboxylic acid (tetrahydro-pyran-4-yl)-amide] | 3.9
Cc1onc(-c2ccc(F)cc2)c1CNc1cc(C(=O)NC(C)CO)[nH]n1 (stereo not drawn) [Example 157, 5-{[3-(4-Fluoro-phenyl)-5-methyl-isoxazol-4-ylmethyl]-amino}-2H-pyrazole-3-carboxylic acid (2-hydroxy-1-methyl-ethyl)-amide] | 51
Cc1onc(-c2ccc(F)cc2)c1CNc1cc(C(=O)N2CC3(COC3)C2)[nH]n1 [Example 158, (5-{[3-(4-Fluoro-phenyl)-5-methyl-isoxazol-4-ylmethyl]-amino}-2H-pyrazol-3-yl)-(2-oxa-6-aza-spiro[3.3]hept-6-yl)-methanone] | 22
Cc1onc(-c2ccccn2)c1CNc1cc(C(=O)NC(C)C)n(C)n1 [Example 159, N-isopropyl-1-methyl-3-((5-methyl-3-(pyridin-2-yl)isoxazol-4-yl)methylamino)-1H-pyrazole-5-carboxamide] | 39.9
Cc1onc(-c2ccccn2)c1CNc1cc(C(=O)NC2CCOCC2)n(C)n1 [Example 160, 2-Methyl-5-[(5-methyl-3-pyridin-2-yl-isoxazol-4-ylmethyl)-amino]-2H-pyrazole-3-carboxylic acid (tetrahydro-pyran-4-yl)-amide] | 25.4
Cc1onc(-c2ccccn2)c1CNc1cc(C(=O)NN2CCOCC2)n(C)n1 [Example 161, 1-Methyl-3-((5-methyl-3-(pyridin-2-yl)isoxazol-4-yl)methylamino)-N-morpholino-1H-pyrazole-5-carboxamide] | 19.4
